These results are taken from patent publication US9394295B2, “Antibacterial homopiperidinyl substituted 3,4-dihydro-1H-[1,8]naphthyridinones” (Janssen Sciences Ireland UC, priority 2011, dated 2016).

Data set [1] concerns Staphylococcus aureus ATCC 29213. As to the kind of experiment: Antibacterial susceptibility testing: IC90 determination (STA). The following applies: ATCC29213, S. aureus ATCC 29213, 90% inhibitory concentration for bacterial growth, read-out: STA (361.159) IC90. The data set is classed as cell-based. How it is done: The following bacteria were used: Staphylococcus aureus ATCC 29213, methicillin-resistant Staphylococcus aureus (MRSA) ATCC 700788 and Escherichia coli ATCC 35218. The bacteria used in this study were grown overnight in flasks containing 100 ml Mueller-Hinton broth (Difco cat. nr. 0757-17) in sterile de-ionized water, with shaking, at 37° C. Stocks were store at −70° C. until use.
Bacteria were incubated on a tryptic soy agar plate containing 5% sheep blood (Becton Dickinson cat. nr. 254053) for 18-24 hours at 35° C. in aerobic conditions (first passage). For the second passage, fresh Mueller-Hinton broth is inoculated with 5-10 colonies and grown overnight at 35° C. until turbidity (reaching log-phase) in aerobic conditions is reached. The bacterial suspension is then adjusted to 0.5 McFarland density and further diluted 1:100 in Mueller Hinton broth medium. This is used as inoculum.
MIC assays were performed by the broth microdilution method in a 96-well format (flat-bottom microtitre plates) with a final volume of 0.1 ml Mueller Hinton broth containing two-fold serial dilutions of compounds and inoculated with 5×10^5 CFU/ml of bacteria (standard inoculum size according to CLSI guidelines). Inhibitors are typically varied over the range of 63 to 0.49 μM. The final DMSO concentration in the assay was 1.25% (maximum tolerable DMSO concentration=6%). In the assays where the effect of human serum on the activity of the compounds against S. aureus was tested, human serum was added at a final concentration of 10%. The plates were incubated at 35° C. for 16-20 hours. At the end of incubation the bacterial growth was quantified fluorometrically. For this, resazurin was added to all wells and the plates were re-incubated. The incubation time is dependent on the type of bacteria. A change in color from blue to pink indicated the growth of bacteria. The fluorescence was read in computer-controlled fluorometer (Fluoroskan Ascent FL, Labsystems) at an excitation wavelength 540 nm and an emission wavelength of 590 nm. The % growth inhibition achieved by the compounds was calculated according to standard methods. The IC90 (expressed in μg/ml) was defined as the 90% inhibitory concentration for bacterial growth. A panel of reference compounds were simultaneously tested for QC approval.

A short description of data set [2]: Thermodynamic solubility / solubility in aqueous solution. The data set is classed as physicochemical. The following applies: thermodynamic from solid, 4 days at ambient temperature. On the procedure: The pH solubility profiling was carried out at ambient temperature for a period of 4 days. A saturation solubility study was carried out in order to determine maximum solubility in a particular buffer solution. The compound was added to respective buffer solution until saturation point is reached. This was followed by shaking the flask for 4 days at ambient temperature. After 4 days, the solutions were filtered and injected on UPLC and the concentration was determined using a generic HPLC method.

For the next data set, the system named is S. aureus ATCC 43300. Put plainly: MIC broth microdilution (CLSI), S. aureus ATCC 43300. Format: cell-based. The settings on record: Staphylococcus aureus, ATCC 43300 / MRSA, reference strain MRSA. On the procedure: (§1) Minimum Inhibitory Concentrations (MICs) were determined in accordance with the Clinical and Laboratory Standards Institute (CLSI) methodology against aerobic bacteria (CLSI M07-A8) (see Clinical and Laboratory Standards Institute. 2009. Methods for dilution antimicrobial susceptibility tests for bacteria that grow aerobically. CLSI document M07-A8, Vol. 29, No. 2.) by the broth microdilution method with cation-adjusted Mueller-Hinton broth (CA-MHB) medium for the majority of organisms, except for Haemophilus influenza, where Haemophilis test medium (HTM) broth was used. Descriptions of the individual organisms can be found in the table. Where possible, ATCC standard strains were tested.
(§2) The inoculum density for the susceptibility testing was standardized to give a final inoculum of approximately 5×10^5 CFU/mL.
(§3) Stock solutions of the compounds were prepared in DMSO at concentrations of 1 mg/mL. Linezolid was prepared in DMSO at a concentration of 2 mg/mL. Stock solutions of all compounds were diluted into CA-MHB to give a range of two-fold dilutions, depending upon the sensitivity of the organism being tested.
A general note: In broth dilution the organism is exposed to a series of concentrations in liquid medium.

Another data set relates to S. aureus NRS119. As to the kind of experiment: MIC broth microdilution (CLSI), S. aureus NRS119. The data set is classed as cell-based. The following applies: Staphylococcus aureus, LZD-R. How it is done:
as §1, §2, §3

The subject of the next data set is S. aureus NRS121. Put plainly: MIC broth microdilution (CLSI), S. aureus NRS121. The data set is classed as cell-based. The settings on record: Staphylococcus aureus, LZD-R. How it is done: as §1, §2, §3
In the next data set the test system is H. influenza ATCC 49247. As to the kind of experiment: MIC broth microdilution (CLSI), H. influenza ATCC 49247. The data set is classed as cell-based. The following applies: Haemophilus influenzae, ATCC49247, HTM broth. On the procedure: as §1, §2, §3
The test system of a further data set is M. catarrhalis ATCC 8176. As to the kind of experiment: MIC broth microdilution (CLSI), M. catarrhalis ATCC 8176. The settings on record: Moraxella catarrhalis, ATCC8176. The data set is classed as cell-based. On the procedure: as §1, §2, §3
Data set [3] can be described thus: In vivo pharmacokinetic and oral bioavailability. The following applies: male Swiss mice; for half-life: read-out: Half life (t1/2) (converted). On the procedure:
The in vivo pharmacokinetics and oral bioavailability of the compound of the examples was/is investigated in male Swiss mice (fed) following single intravenous (i.v.) bolus and oral (p.o.) administration. For the i.v. and p.o. solution formulations, the compound was/is dissolved in a 20% HP-β-CD solution. The pH of the formulations was/is around pH 4. All i.v. formulations were isotonic.

The mark [4] stands for this setting: aqueous buffer, Buffer pH 2, read-out: Solubility, Buffer pH 2.
Where [5] appears, read: aqueous buffer, Buffer pH 4, read-out: Solubility, Buffer pH 4.
Where [6] appears, read: aqueous buffer, Buffer pH 7.4, read-out: Solubility, Buffer pH 7.4.
[7] abbreviates: aqueous with cosolvent or surfactant or cyclodextrin, 10% HP-β-CD buffer pH 4, read-out: Solubility, 10% HP-β-CD buffer pH 4.
[8] abbreviates: aqueous with cosolvent or surfactant or cyclodextrin, 10% HP-β-CD buffer pH 7.4, read-out: Solubility, 10% HP-β-CD buffer pH 7.4.
The mark [9] stands for this setting: aqueous with cosolvent or surfactant or cyclodextrin, 20% HP-β-CD buffer pH 4, read-out: Solubility, 20% HP-β-CD buffer pH 4.
Setting [10] is: aqueous with cosolvent or surfactant or cyclodextrin, 20% HP-β-CD buffer pH 7.4, read-out: Solubility, 20% HP-β-CD buffer pH 7.4.
Where [11] appears, read: mouse, plasma, iv, i.v. 2.5 mg/kg.
[12] abbreviates: mouse, plasma, po, p.o. 10 mg/kg.

The structures appear in SMILES notation. Converted amounts (≈) assume the structure as drawn. Like-named read-outs stand apart in the source and are kept apart here.

In general, IC90 refers to the concentration at which the effect reaches the 90% level. Broadly, the solubility is the dissolved amount per volume that the medium holds. Take `O=C1CCc2cc(/C=C/C(=O)N3CCC=C(c4ccccc4)CC3)cnc2N1` [Co. No. 2]: in data set [1], the IC90 was found to be 0.14 µg/mL (≈ 0.375 µM). Moreover, the solubility at 4 days is 2 µg/mL (≈ 5.36 µM) in data set [2] (setting [4]); less than 2 µg/mL in data set [2] (setting [5]); 3 µg/mL (≈ 8.03 µM) in data set [2] (setting [6]); 1150 µg/mL (≈ 3080 µM) in data set [2] (setting [7]); 1080 µg/mL (≈ 2900 µM) in data set [2] (setting [8]); 980 µg/mL (≈ 2620 µM) in data set [2] (setting [9]). In addition, the solubility at 4 days in data set [2] (setting [10]) amounted to 1050 µg/mL (≈ 2820 µM). Moreover, the MIC90 in the data set with S. aureus ATCC 43300 amounted to 0.06 µg/mL (≈ 0.161 µM); against S. aureus NRS119, 0.125 µg/mL (≈ 0.335 µM); in the data set with S. aureus NRS121 it was 0.125 µg/mL (≈ 0.335 µM).
In general, AUC(0-inf) refers to the area under the concentration-time curve extrapolated to infinity. A high value points to high exposure. Broadly, the bioavailability is the share of a dose that reaches the circulation, judged against a reference dose that is usually intravenous. For orientation: Tmax means the time from dosing to the highest level. The Cmax is the highest concentration seen after dosing. For `COc1ccc(F)cc1C1=CCCN(C(=O)/C=C/c2cnc3c(c2)CCC(=O)N3)CC1` [Co. No. 27], the IC90 in data set [1] stood at 0.1 µg/mL (≈ 0.237 µM). For the same compound, the solubility at 4 days was less than 10 µg/mL in data set [2] (setting [4]); less than 10 µg/mL in data set [2] (setting [5]); less than 10 µg/mL in data set [2] (setting [6]); 220 µg/mL (≈ 522 µM) in data set [2] (setting [7]); 250 µg/mL (≈ 593 µM) in data set [2] (setting [8]); 440 µg/mL (≈ 1040 µM) in data set [2] (setting [9]). The solubility at 4 days in data set [2] (setting [10]) was determined as 590 µg/mL (≈ 1400 µM). In addition, the MIC90 with S. aureus ATCC 43300 was 0.06 µg/mL (≈ 0.142 µM); with S. aureus NRS119, 0.06 µg/mL (≈ 0.142 µM); against S. aureus NRS121 it was 0.06 µg/mL (≈ 0.142 µM); in the data set with H. influenza ATCC 49247 it was greater than 8 µg/mL; against M. catarrhalis ATCC 8176, 1 µg/mL (≈ 2.37 µM). In addition, in data set [3] (i.v. 2.5 mg/kg), the Vdz is on record as 1.2 L/kg. In addition, the AUC(0-inf) in data set [3] (setting [11]) stood at 3560 ng·h/mL; in data set [3] (setting [12]), 12600 ng·h/mL. In addition, in data set [3] (mouse, plasma, iv, i.v. 2.5 mg/kg, 20% HP-β-CD solution), the C0 worked out at 3350 ng/mL. The half-life in data set [3] (setting [11]) was 66 min; in data set [3] (setting [12]) it was 120 min. The clearance in data set [3] (mouse, plasma, iv, i.v. 2.5 mg/kg, read-out: Plasma clearance Cl (converted)) was 12.5 mL/min/kg. Also, in data set [3] (mouse, plasma, po, p.o. 10 mg/kg vs i.v. 2.5 mg/kg), the bioavailability stood at 89%. Moreover, the Tmax in data set [3] (setting [12]) turned out to be 30 min. The compound also had a Cmax in data set [3] (mouse, plasma, po, p.o. 10 mg/kg, 20% HP-β-CD solution) of 4640 ng/mL.
